# In PMC7983974 (Basic & Clinical Pharmacology & Toxicology, 2020):
# “And” between values parts separate entries of the source, which are not always exact repeats. Equal entries are not always repeated. Where two headings read alike, the source gives them in different places.
# Tests used:
# [1] = test system: molidustat glucuronidation (clearance); assay: In vitro-in vivo scaling: predicted increase in molidustat AUC; set-up: species or system human; settings: based on mass balance study, no differentiation UGT1A1/UGT1A9
# UGT1A6 = biological target: T1, UGT1A6 (Homo sapiens, UniProt P19224); assay: M1 formation from molidustat by recombinant UGT1A6; type: in vitro ADME; settings: 1 and 10 µmol L^−1
# T1 sequence (P19224 27-532): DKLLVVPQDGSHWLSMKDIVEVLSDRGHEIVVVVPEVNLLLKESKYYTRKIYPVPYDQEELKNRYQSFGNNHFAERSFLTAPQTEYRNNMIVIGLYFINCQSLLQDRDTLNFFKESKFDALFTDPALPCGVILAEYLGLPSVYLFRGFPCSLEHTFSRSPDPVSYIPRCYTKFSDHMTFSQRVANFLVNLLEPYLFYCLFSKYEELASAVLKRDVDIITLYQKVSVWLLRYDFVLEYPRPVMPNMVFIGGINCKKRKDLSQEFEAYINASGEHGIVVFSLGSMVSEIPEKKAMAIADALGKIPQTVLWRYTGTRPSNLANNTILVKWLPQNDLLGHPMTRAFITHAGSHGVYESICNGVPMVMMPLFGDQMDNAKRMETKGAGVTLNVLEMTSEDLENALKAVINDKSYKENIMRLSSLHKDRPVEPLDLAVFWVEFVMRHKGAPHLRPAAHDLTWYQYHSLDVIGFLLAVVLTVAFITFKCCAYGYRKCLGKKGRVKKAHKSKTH
# UGT1A10 = biological target: T2, UGT1A10 (Homo sapiens, UniProt Q9HAW8); assay: M1 formation from molidustat by recombinant UGT1A10; type: in vitro ADME; settings: 1 and 10 µmol L^−1
# T2 sequence (Q9HAW8 26-530): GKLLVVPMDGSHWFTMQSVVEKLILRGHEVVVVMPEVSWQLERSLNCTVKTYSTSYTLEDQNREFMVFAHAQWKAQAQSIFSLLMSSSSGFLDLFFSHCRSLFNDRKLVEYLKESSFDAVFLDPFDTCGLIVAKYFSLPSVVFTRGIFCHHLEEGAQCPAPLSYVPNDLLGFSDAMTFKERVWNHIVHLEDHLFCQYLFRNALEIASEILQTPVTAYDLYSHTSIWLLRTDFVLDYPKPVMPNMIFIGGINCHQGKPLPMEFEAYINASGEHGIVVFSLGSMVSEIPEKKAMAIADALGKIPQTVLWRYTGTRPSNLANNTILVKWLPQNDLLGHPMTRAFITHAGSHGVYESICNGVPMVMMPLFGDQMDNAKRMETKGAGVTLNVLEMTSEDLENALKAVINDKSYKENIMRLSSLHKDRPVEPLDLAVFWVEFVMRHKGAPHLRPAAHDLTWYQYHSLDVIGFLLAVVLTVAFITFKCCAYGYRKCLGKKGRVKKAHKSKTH
# UGT2B7 = biological target: T3, UGT2B7 (Homo sapiens, UniProt P16662); assay: M1 formation from molidustat by recombinant UGT2B7; type: in vitro ADME; settings: 1 and 10 µmol L^−1
# T3 sequence (P16662 24-529): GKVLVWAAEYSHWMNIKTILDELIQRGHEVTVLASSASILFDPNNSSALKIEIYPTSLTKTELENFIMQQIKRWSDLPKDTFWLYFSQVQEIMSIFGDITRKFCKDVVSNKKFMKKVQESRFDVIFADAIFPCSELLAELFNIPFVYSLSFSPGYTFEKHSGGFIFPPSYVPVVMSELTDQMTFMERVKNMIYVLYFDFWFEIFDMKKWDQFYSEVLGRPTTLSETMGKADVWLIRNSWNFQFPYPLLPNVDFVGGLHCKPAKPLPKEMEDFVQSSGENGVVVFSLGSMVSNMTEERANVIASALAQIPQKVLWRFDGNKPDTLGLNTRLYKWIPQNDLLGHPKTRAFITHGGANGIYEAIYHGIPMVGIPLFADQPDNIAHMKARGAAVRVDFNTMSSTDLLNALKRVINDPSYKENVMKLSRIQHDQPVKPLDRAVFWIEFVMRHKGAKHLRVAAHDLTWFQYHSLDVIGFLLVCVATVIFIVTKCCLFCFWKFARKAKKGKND
# UGT2B15 = biological target: T4, UGT2B15 (Homo sapiens, UniProt P54855); assay: M1 formation from molidustat by recombinant UGT2B15; type: in vitro ADME; settings: 1 and 10 µmol L^−1
# T4 sequence (P54855 24-530): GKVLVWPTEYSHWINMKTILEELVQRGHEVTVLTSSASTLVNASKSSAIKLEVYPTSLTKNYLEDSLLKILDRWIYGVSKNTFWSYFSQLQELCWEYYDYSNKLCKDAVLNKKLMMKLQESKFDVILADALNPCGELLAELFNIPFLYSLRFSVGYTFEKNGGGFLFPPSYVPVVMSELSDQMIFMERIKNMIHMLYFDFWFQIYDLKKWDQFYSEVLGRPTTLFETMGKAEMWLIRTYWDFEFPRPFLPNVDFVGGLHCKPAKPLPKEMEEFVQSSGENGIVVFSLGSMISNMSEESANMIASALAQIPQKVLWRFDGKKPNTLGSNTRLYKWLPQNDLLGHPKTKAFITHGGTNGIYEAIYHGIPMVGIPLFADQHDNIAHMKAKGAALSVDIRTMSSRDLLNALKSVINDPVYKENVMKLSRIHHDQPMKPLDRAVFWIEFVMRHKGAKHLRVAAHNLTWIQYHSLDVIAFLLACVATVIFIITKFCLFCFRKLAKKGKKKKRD
# [2] = type: in vivo, human; settings: for Point estimate parameter ratio, AUC / Point estimate parameter ratio, AUC(0‐tlast) / Point estimate parameter ratio, C max: (Molidustat + atazanavir)/molidustat, ANOVA
# EPO = assay: Clinical DDI study: pharmacodynamics, serum erythropoietin; type: in vivo, human; settings: N 13
# [3] = Clinical DDI study: safety and tolerability; type: in vivo, human; settings: n = 14
# [4] = human, cited from earlier work; for absolute oral bioavailability: oral (IR tablet)
# HIF‐PH (EC 1.14.11.29) = settings: cited from earlier work
# [5] = male, human, plasma, oral, 25 mg
smiles,measurement,setting,value
O=c1c(-n2ccnn2)c[nH]n1-c1cc(N2CCOCC2)ncn1 [Molidustat],Fraction metabolized via total glucuronidation (fm),[1],~ 0.9 and 0.9
same,activity for glucuronidation of molidustat,UGT1A6,lacked measurable activity
same,activity for glucuronidation of molidustat,UGT1A10,lacked measurable activity
same,activity for glucuronidation of molidustat,UGT2B7,lacked measurable activity
same,activity for glucuronidation of molidustat,UGT2B15,lacked measurable activity
same,"Point estimate parameter ratio, AUC",[2],2.0665
same,"Point estimate parameter ratio, AUC(0‐tlast)",[2],2.0766
same,"Point estimate parameter ratio, C max",[2],2.0689
same,"Point estimate parameter ratio, AUC",[2]; listed as molidustat,2.07 and 2
same,"Point estimate parameter ratio, AUC(0‐tlast)",[2]; listed as molidustat,2.08
same,"Point estimate parameter ratio, C max",[2]; listed as molidustat,2.07
same,increase in exposure for molidustat with concomitant atazanavir,"[2]; AUC, AUC(0‐t last), C max",approximately 100%
same,half-life,[2]; [5],6.3 h
same,t max,[2]; [5],0.75 h
same,"EPO AUC(0‐24), absolute EPO concentration, arithmetic mean ± SD",EPO,385 ± 121 IU L^−1*h
same,"EPO AUC(0‐24), absolute EPO concentration, geometric mean/CV%",EPO,365 IU L^−1*h
same,"EPO C max, difference to baseline, arithmetic mean ± SD",EPO,12.8 ± 4.02 IU L^−1
same,"EPO C max, ratio to baseline, arithmetic mean ± SD",EPO,2.62 ± 0.578
same,"EPO C max, ratio to baseline, geometric mean/CV%",EPO,2.56
same,Abdominal pain (participants with TEAE),[3],0 n (%)
same,Headache (participants with TEAE),[3],0 n (%)
same,Participants with ≥ 1 TEAE,[3],0 n (%)
same,Jaundice (participants with TEAE),[3]; considered related to atazanavir,0 n (%)
same,absolute oral bioavailability,[4],about 60%
same,absolute oral bioavailability,[4]; listed as molidustat,59%
same,fraction of the dose excreted as molidustat via faeces,[4],~ 6%
same,fraction of the dose excreted as molidustat via urine,[4],~ 4%
same,inhibition of HIF‐PH,HIF‐PH (EC 1.14.11.29),nanomolar concentration range
